Holding throughout (format): cell-based
The target of one assay is T1, EGFR (WT), A431 cell (Homo sapiens, UniProt P00533).
T1 construct: endogenous in cells; host or cells: A431
Put plainly: ELISA assay of EGFR phosphorylation in A431 cells. As to conditions: EGFR pY1068 sandwich ELISA, 2 hours compound, 30 ng/mL EGF last 15 minutes. On the procedure:
(§1) H1975 and A431 cells were seeded onto each well of a 96-well plate at a density of 4×10^4 cells per well. After 24 hours of growth in serum-containing media, cells were treated with test compound in serum-free medium for 2 hours. A431 cells were stimulated with 30 ng/mL EGF during the last 15 minutes of compound treatment. Cells were washed with ice cold PBS before extraction with 100 μl per well cell lysis buffer. Phosphorylation of EGFR was measured using a sandwich ELISA assay with the pair of phospho-specific EGFR (pY1068) and total EGFR antibodies.
(ELISA stands for enzyme-linked immunosorbent assay.)

Assay [1] addresses T2, EGFR (T790M/L858R), H1975 cell (Homo sapiens, UniProt P00533, L858R/T790M).
T2 construct: endogenous in cells; host or cells: H1975
Put plainly: ELISA assay of EGFR phosphorylation in H1975 cells. As to conditions: for IC50: EGFR pY1068 sandwich ELISA, 2 hours compound in serum-free medium; for Selectivity (WT/T790M): ratio of IC50 A431 cell (WT) to IC50 H1975 cell (T790M/L858R). On the procedure:
as §1

Another assay relates to H1975 cells. Nature of the assay: H1975 cell viability assay (cytotoxicity, xCelligence RTCA). As to conditions: 3 days. On the procedure:
(§2) All cell lines were obtained from the American Type Culture Collection and were maintained at 37° C. with 5% CO2, in media supplemented with 10% fetal bovine serum and 1% L-glutamine-penicillin-streptomycin. H1975, HCC827 and A549 cells were cultured with RPMI 1640 media. A431 and Hela cells were maintained in Dulbecco's Modification of Eagle's Medium. EGF (R&D), EGF inhibitors were resuspended and stored according to the manufacturers' instructions.
(§3) Cells were seeded in 96-well E-Plate devices, and attachment, spreading, and proliferation were monitored using the xCelligence RTCA system. After 20 h of RTCA profiling, the cells were treated with the indicated compounds prediluted in growth media to a final maximal DMSO concentration of 0.1%, and the responses were measured at 30-min intervals for 3 days. For each cell type the optimal cell concentration was chosen based on their respective proliferation pattern.

The test system of another assay is A549 cells. Put plainly: A549 cell viability assay (cytotoxicity, xCelligence RTCA). As to conditions: Homo sapiens, 72 h, 3 days. On the procedure:
as §2, §3

In the next assay the test system is EGFR in H1975 cells. Nature of the assay: H1975 EGF stimulation assay (impedance, xCelligence RTCA). As to conditions: Homo sapiens, NCI-H1975, 40 min pretreatment, EGF 30 ng/mL. On the procedure:
as §2
(§4) Impedance measurements were taken using the xCelligence RTCA system (Roche Applied Science) instrument using the E-plates 96-well device from the same company. Cells were trypsinized and seeded on a 96-well E-plate at a density of 15000 cells per well in a volume of 0.1 ml. Cells were allowed to attach and proliferate overnight. Prior to compound treatment, H1975 cells were serum starved in RPMI-1640 for a total of 4 h. Following serum starvation, the cells were pretreated with compounds or vehicle for 40 min and then stimulated with EGF at 30 ng/mL. Throughout the experimental process, the cells were continually monitored, and the changes in impedance were acquired with the xCelligence RTCA system. After EGF treatment, data acquisition was done every minute for up to 2 h. For each cell type the optimal cell concentration was chosen based on their respective proliferation pattern.

The subject of a further assay is HeLa cells. Put plainly: HeLa cell viability assay (cytotoxicity, xCelligence RTCA). As to conditions: Homo sapiens, 72 h, 3 days. On the procedure: as §2, §3
A further assay relates to EGFR in A431 cells. Nature of the assay: A431 EGF stimulation assay (impedance, xCelligence RTCA). As to conditions: Homo sapiens, A-431. On the procedure:
All cell lines were obtained from the American Type Culture Collection and were maintained at 37° C. with 5% CO2, in media supplemented with 10% fetal bovine serum and 1% L-glutamine-penicillin-streptomycin. […] A431 and Hela cells were maintained in Dulbecco's Modification of Eagle's Medium. EGF (R&D), EGF inhibitors were resuspended and stored according to the manufacturers' instructions.
as §4, with “Prior to compound treatment, H1975 cells were serum starved in RPMI-1640 for a total of 4 h.” left out

Some results are limits rather than exact numbers.

T2 sequence (P00533 25-1210 T790M/L858R): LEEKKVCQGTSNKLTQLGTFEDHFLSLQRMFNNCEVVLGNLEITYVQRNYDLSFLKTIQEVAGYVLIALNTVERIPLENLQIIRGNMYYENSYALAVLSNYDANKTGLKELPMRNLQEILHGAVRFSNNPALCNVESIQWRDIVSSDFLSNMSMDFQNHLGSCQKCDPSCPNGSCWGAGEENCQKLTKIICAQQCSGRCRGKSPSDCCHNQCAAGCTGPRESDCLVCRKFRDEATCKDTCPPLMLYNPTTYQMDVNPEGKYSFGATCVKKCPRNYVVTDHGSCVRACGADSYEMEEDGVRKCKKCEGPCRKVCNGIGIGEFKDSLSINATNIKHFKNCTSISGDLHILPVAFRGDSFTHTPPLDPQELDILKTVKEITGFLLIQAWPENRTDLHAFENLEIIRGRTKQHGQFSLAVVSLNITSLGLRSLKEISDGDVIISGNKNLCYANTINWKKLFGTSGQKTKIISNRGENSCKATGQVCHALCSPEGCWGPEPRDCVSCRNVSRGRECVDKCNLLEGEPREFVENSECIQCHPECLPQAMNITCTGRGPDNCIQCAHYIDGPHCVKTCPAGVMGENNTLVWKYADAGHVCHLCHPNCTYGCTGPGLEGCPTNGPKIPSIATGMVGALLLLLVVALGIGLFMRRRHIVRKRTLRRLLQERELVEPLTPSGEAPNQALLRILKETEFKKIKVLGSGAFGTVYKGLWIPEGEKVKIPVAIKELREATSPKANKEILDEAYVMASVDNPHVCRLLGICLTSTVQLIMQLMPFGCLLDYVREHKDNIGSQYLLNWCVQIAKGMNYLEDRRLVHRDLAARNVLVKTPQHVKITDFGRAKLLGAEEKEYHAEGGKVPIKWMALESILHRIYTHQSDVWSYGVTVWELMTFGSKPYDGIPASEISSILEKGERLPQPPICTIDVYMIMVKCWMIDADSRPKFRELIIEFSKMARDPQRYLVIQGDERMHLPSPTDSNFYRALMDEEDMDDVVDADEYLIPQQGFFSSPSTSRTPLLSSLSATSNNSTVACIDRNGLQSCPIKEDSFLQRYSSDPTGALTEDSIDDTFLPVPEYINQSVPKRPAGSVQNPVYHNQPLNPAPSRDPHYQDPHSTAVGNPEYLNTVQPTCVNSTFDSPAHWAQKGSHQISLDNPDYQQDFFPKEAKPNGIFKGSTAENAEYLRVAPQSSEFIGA
T1 sequence (P00533 25-1210): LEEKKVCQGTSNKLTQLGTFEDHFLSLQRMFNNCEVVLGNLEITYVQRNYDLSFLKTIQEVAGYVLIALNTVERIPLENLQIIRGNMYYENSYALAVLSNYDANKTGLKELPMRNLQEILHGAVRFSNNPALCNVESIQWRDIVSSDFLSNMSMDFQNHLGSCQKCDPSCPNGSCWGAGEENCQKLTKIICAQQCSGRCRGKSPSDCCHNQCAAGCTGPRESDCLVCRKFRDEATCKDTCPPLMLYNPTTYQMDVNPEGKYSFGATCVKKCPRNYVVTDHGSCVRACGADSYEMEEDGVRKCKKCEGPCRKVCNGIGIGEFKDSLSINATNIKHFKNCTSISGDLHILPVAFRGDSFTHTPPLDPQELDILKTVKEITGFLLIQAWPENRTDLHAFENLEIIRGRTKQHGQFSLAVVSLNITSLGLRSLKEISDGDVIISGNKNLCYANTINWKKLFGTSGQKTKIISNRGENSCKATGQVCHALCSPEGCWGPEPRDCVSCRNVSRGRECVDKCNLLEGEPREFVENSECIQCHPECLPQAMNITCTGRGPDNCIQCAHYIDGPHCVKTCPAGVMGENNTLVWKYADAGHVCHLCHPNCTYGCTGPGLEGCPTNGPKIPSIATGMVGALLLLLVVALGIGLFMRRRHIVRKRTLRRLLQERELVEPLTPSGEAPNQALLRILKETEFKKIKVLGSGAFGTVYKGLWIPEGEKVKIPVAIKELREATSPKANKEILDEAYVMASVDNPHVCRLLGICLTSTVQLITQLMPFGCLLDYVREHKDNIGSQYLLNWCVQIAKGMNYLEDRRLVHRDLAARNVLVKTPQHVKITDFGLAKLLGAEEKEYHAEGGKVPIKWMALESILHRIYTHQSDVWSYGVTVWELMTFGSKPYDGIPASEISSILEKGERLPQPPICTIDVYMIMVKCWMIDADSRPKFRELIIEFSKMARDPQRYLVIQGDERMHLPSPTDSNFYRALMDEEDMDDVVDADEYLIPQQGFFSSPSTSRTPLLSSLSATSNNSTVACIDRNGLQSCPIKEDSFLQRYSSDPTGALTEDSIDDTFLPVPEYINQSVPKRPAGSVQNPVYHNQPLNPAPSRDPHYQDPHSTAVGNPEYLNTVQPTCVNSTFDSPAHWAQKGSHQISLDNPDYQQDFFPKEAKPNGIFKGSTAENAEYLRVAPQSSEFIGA

As to `C=CC(=O)Nc1cccc(C(F)(F)c2nc(Nc3ccc(N4CCN(C)CC4)c(F)c3)nc3[nH]ccc23)c1` [Compound 28c, N-(3-(difluoro(2-(3-fluoro-4-(4-methylpiperazin-1-yl)phenylamino)-7H-pyrrolo[2,3-d]pyrimidin-4-yl)methyl)phenyl)acrylamide], inhibition against EGFR (WT), A431 cell was half-maximal at 8.05 µM (IC50). In assay [1], the IC50 was found to be 0.08 µM and the “Selectivity (WT/T790M)” value is 100.

Regarding `C=CC(=O)Nc1cccc(C(F)(F)c2nc(Nc3ccc(N4CCN(C)CC4)cc3)ncc2Cl)c1` [Compound 38], the 50% inhibitory concentration (IC50) at EGFR (WT), A431 cell was 3.81 µM; in assay [1], 0.341 µM. In addition, the “Selectivity (WT/T790M)” value in assay [1] was found to be 11.2.

As to `C/C=C/C(=O)Nc1cccc(C(F)(F)c2nc(Nc3ccc(N4CCN(C)CC4)cc3)ncc2F)c1` [Compound 40], the IC50 on EGFR (WT), A431 cell stood at 25.3 µM. In addition, in assay [1], the midpoint of inhibition, the IC50, lay at 1.74 µM and the “Selectivity (WT/T790M)” value was determined as 14.6.

On to `C=CC(=O)Nc1cccc(C(F)(F)c2nc(Nc3ccc(N4CCN(C)CC4)cc3)ncc2F)c1` [Compound 19, N-(3-(difluoro(5-fluoro-2-(4-(4-methylpiperazin-1-yl)phenylamino)pyrimidin-4-yl)methyl)phenyl)acrylamide], for which the “H1975 cell viability assay (under head IC50 (uM), results in words)” value (“H1975 cell viability assay” for short) with H1975 cells is on record as “Active”. In addition, the IC50 with A549 cells is > 6.7 µM; with EGFR in H1975 cells, 1.1 µM; in the assay on HeLa cells it was > 6.7 µM; on EGFR (WT), A431 cell, 2.46 µM; in assay [1], 0.029 µM; with EGFR in A431 cells, 0.97 µM. Further, the “Selectivity (WT/T790M)” value in assay [1] is on record as 85.

Compound `C=CC(=O)Nc1cccc(C(F)(F)c2nc(Nc3ccc(N4CCN(C)CC4)c(F)c3)ncc2F)c1` [Compound 36] yielded an IC50 against EGFR (WT), A431 cell of 2.17 µM. Moreover, in assay [1], it took 0.093 µM to reach half-maximal inhibition (IC50) and the “Selectivity (WT/T790M)” value is 23.3.

`C/C=C/C(=O)Nc1cccc(C(F)(F)c2nc(Nc3ccc(N4CCN(CC)CC4)cc3)ncc2F)c1` [Compound 42]: at EGFR (WT), A431 cell, the midpoint of inhibition, the IC50, lay at 11.8 µM. Further, in assay [1], the midpoint of inhibition, the IC50, lay at 1.63 µM and the “Selectivity (WT/T790M)” value amounted to 7.2.

For the compound `C=CC(=O)Nc1cccc(C(F)(F)c2nc(Nc3ccc(N4CCN(C)CC4)cc3)nc3[nH]cnc23)c1` [Compound 13a, N-(3-(difluoro(2-(4-(4-methylpiperazin-1-yl)phenylamino)-9H-purin-6-yl)methyl)phenyl)acrylamide], in the assay with H1975 cells, the “H1975 cell viability assay” value is given as “Active”. Moreover, the half-maximal inhibitory concentration (IC50) in the assay on A549 cells is > 20 µM; in the assay with EGFR in H1975 cells, 1.7 µM; in the assay with HeLa cells it was > 2.2 µM; at EGFR (WT), A431 cell, 13.7 µM; in assay [1], 0.17 µM; in the assay on EGFR in A431 cells, 2.4 µM. Besides, the “Selectivity (WT/T790M)” value in assay [1] was determined as 82.

In the case of `C=CC(=O)Nc1cccc(C(F)(F)c2nc(Nc3ccc(N4CCN(C)CC4)cc3OC)nc3[nH]cnc23)c1` [Compound 13b, N-(3-(difluoro(2-(2-methoxy-4-(4-methylpiperazin-1-yl)phenylamino)-9H-purin-6-yl)methyl)phenyl)acrylamide], the half-inhibitory concentration (IC50) is > 20 µM in the assay on A549 cells; 1.9 µM in the assay with EGFR in H1975 cells; > 20 µM with HeLa cells; 10.8 µM on EGFR (WT), A431 cell; 0.34 µM in assay [1]; 4.1 µM with EGFR in A431 cells. Further, the “Selectivity (WT/T790M)” value in assay [1] turned out to be 32.

For the compound `C=CC(=O)Nc1cccc(C(F)(F)c2nc(Nc3ccc(N4CCN(C)CC4)cc3)nc3[nH]ccc23)c1` [Compound 28a, N-(3-(difluoro(2-(4-(4-methylpiperazin-1-yl)phenylamino)-7H-pyrrolo[2,3-d]pyrimidin-4-yl)methyl)phenyl)acrylamide], half-maximal inhibition on EGFR (WT), A431 cell (IC50) was put at 2.73 µM. In assay [1], the IC50 came out at 0.026 µM and the “Selectivity (WT/T790M)” value is given as 107.

`C=CC(=O)Nc1cccc(C(F)(F)c2nc(Nc3ccc(N4CCN(C)CC4)nc3)nc3[nH]ccc23)c1` [Compound 28b, N-(3-(difluoro(2-(6-(4-methylpiperazin-1-yl)pyridin-3-ylamino)-7H-pyrrolo[2,3-d]pyrimidin-4-yl)methyl)phenyl)acrylamide] gave an IC50 against EGFR (WT), A431 cell of 12 µM. In addition, in assay [1], it took 0.026 µM to reach half-maximal inhibition (IC50) and the “Selectivity (WT/T790M)” value was 466.

On to `C=CC(=O)Nc1cccc(C(F)(F)c2nc(Nc3ccc(N4CCN(C)CC4)cc3OC)ncc2OC)c1` [Compound 63], for which the IC50 at EGFR (WT), A431 cell is 28.8 µM. In assay [1], the concentration for half-maximal inhibition (IC50) is 0.03 µM and the “Selectivity (WT/T790M)” value was 974.

Consider `C=CC(=O)Nc1cccc(C(F)(F)c2nc(Nc3ccc(N4CCN(CC)CC4)cc3)ncc2F)c1` [Compound 39], for which, on EGFR (WT), A431 cell, the IC50 was 0.71 µM. In addition, in assay [1], the IC50 amounted to 0.041 µM and the “Selectivity (WT/T790M)” value is given as 17.3.

With `C=CC(=O)Nc1cccc(C(F)(F)c2nc(Nc3ccc(N4CCN(C)CC4)cc3OC)nc3[nH]ccc23)c1` [Compound 28d, N-(3-(difluoro(2-(2-methoxy-4-(4-methylpiperazin-1-yl)phenylamino)-7H-pyrrolo[2,3-d]pyrimidin-4-yl)methyl)phenyl)acrylamide], the IC50 against EGFR (WT), A431 cell was > 20 µM. Also, in assay [1], the half-inhibitory concentration (IC50) came out at 0.158 µM and the “Selectivity (WT/T790M)” value was >127.

In the case of `C=CC(=O)Nc1cccc(C(F)(F)c2nc(Nc3ccc(N4CCN(C)CC4)cc3OC)ncc2F)c1` [Compound 32], at EGFR (WT), A431 cell, the concentration for half-maximal inhibition (IC50) was > 20 µM. In assay [1], the 50% inhibitory concentration (IC50) was 1.3 µM and the “Selectivity (WT/T790M)” value is recorded as >15.4.

Take `C=CC(=O)Nc1cccc(C(F)(F)c2nc(Nc3ccc(N4CCN(C)CC4)nc3)ncc2F)c1` [Compound 33]: the IC50 stood at 7.17 µM against EGFR (WT), A431 cell and 0.099 µM in assay [1]. The “Selectivity (WT/T790M)” value in assay [1] is given as 72.6.

As for `C=CC(=O)Nc1cccc(C(F)(F)c2nc(Nc3ccc(N4CCN(C)CC4)cc3)nc3c2ccn3CO)c1` [Compound 27a, N-(3-(difluoro(7-(hydroxymethyl)-2-(4-(4-methylpiperazin-1-yl)phenylamino)-7H-pyrrolo[2,3-d]pyrimidin-4-yl)methyl)phenyl)acrylamide], the half-inhibitory concentration (IC50) against EGFR (WT), A431 cell was 23.4 µM. In assay [1], the IC50 was 0.058 µM and the “Selectivity (WT/T790M)” value amounted to 403.

As to `C=CC(=O)Nc1cccc(Oc2nc(Nc3ccc(N4CCN(C)CC4)cc3OC)ncc2Cl)c1` [WZ4002, reference compound], the “H1975 cell viability assay” value in the assay with H1975 cells is given as “Active”. Besides, the IC50 with A549 cells is > 20 µM; with EGFR in H1975 cells, 1.1 µM; in the assay on HeLa cells, > 6.7 µM; in the assay on EGFR in A431 cells it was 0.817 µM.

On to `C=CC(=O)Nc1cccc(C(F)(F)c2nc(Nc3ccc(N4CCN(C)CC4)nc3)ncc2OC)c1` [Compound 31], for which, at EGFR (WT), A431 cell, the 50% inhibitory concentration (IC50) was > 20 µM. Besides, in assay [1], half-maximal inhibition (IC50) required 0.03 µM and the “Selectivity (WT/T790M)” value is >657.

In turn, `C=CC(=O)Nc1cccc(C(F)(F)c2nc(Nc3ccc(N4CCN(C)CC4)c(F)c3)ncc2OC)c1` [Compound 34] displayed an IC50 against EGFR (WT), A431 cell of 4.37 µM. Further, in assay [1], the IC50 is 0.038 µM and the “Selectivity (WT/T790M)” value was found to be 113.

In the case of `C=CC(=O)Nc1cccc(C(F)(F)c2nc(Nc3ccc(N4CCN(C)CC4)cc3)ncc2OC)c1` [Compound 35], it took 3.61 µM to reach half-maximal inhibition on EGFR (WT), A431 cell (IC50). Moreover, in assay [1], half-maximal inhibition (IC50) was put at 0.062 µM and the “Selectivity (WT/T790M)” value worked out at 58.4.

With `C=CC(=O)Nc1cccc(C(F)(F)c2nc(Nc3ccc(N4CCN(C)CC4)cc3)ncc2C)c1` [Compound 37], the IC50 against EGFR (WT), A431 cell was 11.1 µM. In addition, in assay [1], inhibition was half-maximal at 0.106 µM (IC50) and the “Selectivity (WT/T790M)” value was found to be 105.

Usually IC50 stands for the concentration that gives 50% inhibition.

For the origin of these results see patent US11612602B2, “Heterocyclic compounds and uses as anticancer agents” (ACEA Therapeutics, Inc., priority 2012, dated 2023).
